Several values for one entry are separate records, joined by “and”; a condition that tells them apart may be missing. Equal entries are not always repeated.
Columns and labels:
[1] = tested on: primary AML patient blasts; assay: MTS proliferation assay, primary AML blasts co-cultured with HS5-GFP stroma cells, 96 h; assay type: cell-based, human; conditions: HS5-GFP co-culture
Excerpt: For in vitro cytotoxicity experiments (Fig. 1b–d), repeated measures models were used to account for correlations among observations from the same experiment. The percentage of live cells was compared at each concentration with DMSO. […] Mixed effects models were used in experiments described in Additional file 1: Table S4 and Fig. 2c to account for correlations within a single patient. Outcome data were first log-transformed to stabilize variances and reduce skewness. For survival experiments (Figs. 5 and 6a), Kaplan-Meier curves were produced and group differences for Fig. 5 and assessed by the log-rank test and for Fig. 6a, p values have been adjusted for multiple comparisons using Holm’s procedure. p values from experiments with multiple endpoints were adjusted for multiple comparisons using either Holm’s procedure or Dunnett’s test (all comparisons against vehicle/DMSO).
(§1) MTS proliferation assay using a human stroma co-culture assay. […] FLT3 wild-type (WT) samples (red) and FLT3-ITD (black). Colony-Forming Unit-Granulocyte and Macrophage (CFU-GM) assay. […] Number of colonies were counted after 14 days (c)

[2] = tested on: phosphorylated SYK (tyrosine 525/526); assay: Immunoblot of phospho-SYK Tyr525/526; assay type: cell-based, human; conditions: MOLM-13, MV4-11, and OCI-AML3, 10-min treatment
Method: (§2) Cell lines were serum starved overnight followed by a 10-min treatment. Cells were washed in ice-cold PBS then lysed in 1X Cell Lysis Buffer (CST) supplemented with proteinase and phosphatase inhibitors cocktail (Roche). Pierce BCA Protein Assay was used to quantify the protein lysates (Thermo Fisher Scientific, Waltham, MA). For Immunoblotting, 15–25 μg of protein lysate was prepared in 2X or 4X Laemmeli’s sample buffer (Bio-Rad Laboratories, Hercules, CA) and heated for 5 min at 100 °C. Samples were separated on 8% sodium dodecyl sulfate polyacrylamide gel and transferred onto nitrocellulose membrane (Bio-Rad Laboratories, Hercules, CA). The membranes were blocked for 1 h in Blocker BLOTTO Blocking Buffer (Thermo Fisher Scientific, Waltham, MA) or 5% non-fat milk followed by overnight incubation at 4 °C with primary antibody followed by HRP-conjugated secondary antibodies and visualized with chemiluminescent Pierce ECL Substrate (Thermo Fisher Scientific, Waltham, MA) on X-ray films.
Fig. 3 ARQ 531 modulates AML pro-survival kinases. Immunoblot analysis for MOLM-13, MV4-11, and OCI-AML3 AML cell lines (representative of 2-3 independent blots). […] Twenty to 25 μg of total protein lysate was loaded per lane. GAPDH, HSP90, or β-Actin were used as loading controls. a, b Modulation of phosphorylated SFK and downstream targets in FLT3-ITD cell lines MOLM-13 and MV-11, respectively. c, d Modulation of phosphorylated SYK and BTK in all three cell lines

[3] = tested on: MOLM-13, MV4-11, and OCI-AML3 cell lines; assay: Annexin/PI apoptosis assay 72 h; assay type: cell-based, human; conditions: increasing concentrations of ARQ 531 or 50 nM gilteritinib
Method: Cells were treated for 72 h then stained for 20 min in 1X Annexin Binding buffer (BD Biosciences, Franklin Lakes, NJ) containing Annexin V-FITC and Propidium Iodine (Leinco Technologies, Fenton, MO). Live and apoptotic cells were measured using FC 500 flow cytometer and analyzed on Kaluza software (Beckman Coulter, Pasadena, CA).

[4] = tested on: Ba/F3 FLT3-ITD pMIT SYK-TEL
Method: (§3) CellTiter 96 Aqueous MTS reagent (Promega, Madison, WI) was added to cells followed by a 3-h incubation at 37 °C, 5% CO2. The absorbance was measured at 490 nm using DTX 880 plate reader and the half maximal inhibitory concentration (IC50) was calculated using GraphPad Prism 7 (GraphPad Software, La Jolla, CA) and SAS/STAT software (SAS v9.4 for Windows, SAS Institute, Inc., Cary, NC).

[5] = tested on: primary AML patient blasts; assay: Colony-Forming Unit-Granulocyte and Macrophage (CFU-GM) assay; assay type: cell-based, human; conditions: 0.1 µM, colonies counted after 14 days
Method: Primary AML patient samples were treated and plated at 5000–10,000 cells in 1.1 ml methylcellulose supplemented with recombinant human stem cell factor, interleukin 3, granulocyte colony-stimulating factor, and granulocyte-macrophage colony-stimulating factor (MethoCult™, […] Technologies, Vancouver, Canada) per dish in duplicates. Colonies were counted after 14 days when using primary patient samples.
as §1

MOLM-13 = assay: MTS proliferation assay 72 h, MOLM-13; conditions: MOLM-13, 1 µM, 72 hours MTS (ibrutinib 1 hour washout)
Method: A total of 5000–30,000 cells from the lines above were treated in a 96-well plate for 72 h. CellTiter 96 Aqueous MTS reagent (Promega, Madison, WI) was added to cells followed by a 3-h incubation at 37 °C, 5% CO2. The absorbance was measured at 490 nm using DTX 880 plate reader and the half maximal inhibitory concentration (IC50) was calculated using GraphPad Prism 7 (GraphPad Software, La Jolla, CA) and SAS/STAT software (SAS v9.4 for Windows, SAS Institute, Inc., Cary, NC). For the MOLM-13 resistant and the Ba/F3-FLT3-ITD/TKD cell lines, cells were treated for 72 h and cell viability was evaluated using MTT assay (Roche Diagnostics. Mannheim. Germany) according to the manufacturer’s instructions.

BTK phosphorylation = assay: Immunoblot of phospho-BTK; assay type: cell-based, human
Method: as §2, with “Cells” for “Cell lines were serum starved overnight followed by a 10-min treatment. Cells”
Immunoblot analysis for MOLM-13, MV4-11, and OCI-AML3 AML cell lines (representative of 2-3 independent blots). […] Twenty to 25 μg of total protein lysate was loaded per lane.

[6] = tested on: MOLM-13 disseminated AML xenograft; assay: MOLM-13 disseminated xenograft, ARQ + Ven combination study (NCG mice); assay type: in vivo; conditions: 50 mg/kg ARQ 531 and/or 75 mg/kg venetoclax Q.D.P.O from 4 days post-engraftment until ERC; vehicle 25 days
Method: All experiments were conducted after approval of The Ohio State University Institutional Animal Care and Use Committee. Mice were randomized and enrolled for daily oral gavage (Q.D.P.O) treatment of vehicle or 50 mg/kg ARQ 531. Mice were treated until reaching early removal criteria (ERC) defined as 20% weight loss, lethargy, hind limb paralysis, moribund, anorexia, dehydration, hunched posture, severe diarrhea, breathing difficulties, or any abnormal neurological symptoms. […]
Fig. 7 BCL2 inhibition improves ARQ 531 in vivo activity. a Kaplan–Meier survival curve in the MOLM-13 xenograft after mice were treated with vehicle (N = 9) or 50 mg/kg ARQ 531 Q.D.P.O (N = 9) or 75 mg/kg venetoclax Q.D.P.O (N = 10) or 50 mg/kg ARQ 531 and 75 mg/kg venetoclax combination Q.D.P.O (N = 10) at 4 days post engraftment until ERC. b Noninvasive serial whole body bioluminescence imaging of ventral view to monitor leukemia progression and regression post treatment. Mice were injected with 150 mg/kg Firefly D-Luciferin for evaluation of tumor burden as determined by whole body bioluminescence imaging using IVIS imager

Method for Ba/F3 FLT3-ITD Parental: as §3

Q: For CCc1nc(C(N)=O)c(Nc2ccc(N3CCC(N4CCN(C)CC4)CC3)c(OC)c2)nc1NC1CCOCC1 [Gilteritinib, reference compound], which “Estimated Ratio of proliferation versus vehicle (DMSO)” value (“Estimated Ratio … (DMSO)” below) ([1]; 0.005 µM) is on record?
A: 1.02

Q: What about the “Estimated Ratio … (DMSO)” value ([1]; 0.01 µM) of the same compound?
A: 1.05

Q: And the “Estimated Ratio … (DMSO)” value ([1]; 0.05 µM)?
A: 1.06

Q: What about the “Estimated Ratio … (DMSO)” value ([1]; 0.1 µM) of the same compound?
A: 1.02

Q: What about the “Estimated Ratio … (DMSO)” value ([1]; 0.5 µM) of the same compound?
A: 0.99

Q: What about the “Estimated Ratio … (DMSO)” value ([1]; 1 µM) of the same compound?
A: 0.87

Q: And the “Estimated Ratio … (DMSO)” value ([1]; 5 µM)?
A: 0.78

Q: And the “Estimated Ratio … (DMSO)” value ([1]; 10 µM)?
A: 0.56

Q: And the “Estimated Ratio … (DMSO)” value ([1]; 50 µM)?
A: 0.54

Q: And the “effect on phosphorylated SYK (tyrosine 525/526)” value [2]?
A: down-modulated SYK phosphorylation only in the FLT3-ITD cell lines

Q: What about the “apoptosis / cytotoxicity (Annexin/PI)” value [3] of the same compound?
A: cytotoxic in the FLT3-ITD cell lines only

Q: What about the IC50 [4] of the same compound?
A: 651 nM and 415 nM and 456 nM

Q: What about the “Estimated ratio of colony formation vs. DMSO” value [5] of the same compound?
A: 0.67

Q: Which results are given for CO[C@@H]1[C@H](N(C)C(=O)c2ccccc2)C[C@H]2O[C@]1(C)n1c3ccccc3c3c4c(c5c6ccccc6n2c5c31)C(=O)NC4 [Midostaurin, reference compound]?
A: effect on phosphorylated SYK (tyrosine 525/526) [2]: down-modulated SYK phosphorylation only in the FLT3-ITD cell lines; IC50 (Ba/F3 FLT3-ITD Parental): 95.4 nM and 63.3 nM

Q: Which “in vitro anti-proliferative activity” value (MOLM-13) does the source give for c1cn2cc(-c3ccc4cn[nH]c4c3)nc(Nc3ccc(N4CCOCC4)cc3)c2n1 [entospletinib, Entospletinib, reference compound] here?
A: potently inhibited proliferation

Q: Which “effect on BTK phosphorylation” value (BTK phosphorylation) does the source give for C=CC(=O)N1CCC[C@@H](n2nc(-c3ccc(Oc4ccccc4)cc3)c3c(N)ncnc32)C1 [ibrutinib, reference compound] here?
A: potently inhibit BTK phosphorylation

Q: What about the “in vitro anti-proliferative activity” value (MOLM-13) of the same compound?
A: only ARQ 531 demonstrated in vitro anti-proliferative activity

Q: For CC(C)(C)c1cc(NC(=O)Nc2ccc(-c3cn4c(n3)sc3cc(OCCN5CCOCC5)ccc34)cc2)no1 [quizartinib, Quizartinib], which “effect on phosphorylated SYK (tyrosine 525/526)” value [2] is on record?
A: down-modulated SYK phosphorylation only in the FLT3-ITD cell lines

Q: With CC1(C)CCC(CN2CCN(c3ccc(C(=O)NS(=O)(=O)c4ccc(NCC5CCOCC5)c([N+](=O)[O-])c4)c(Oc4cnc5[nH]ccc5c4)c3)CC2)=C(c2ccc(Cl)cc2)C1 [venetoclax, reference compound] as the compound, how does the survival [6] read?
A: 24 days

From paper PMC6988309, “Preclinical efficacy for a novel tyrosine kinase inhibitor, ArQule 531 against acute myeloid leukemia” (Journal of Hematology & Oncology, 2020)
